Drawing on article PMC12079444, “Antagonist Targeting the Species‐Specific Fatty Acid Dehydrogenase/Isomerase FabX for Anti‐H. pylori Infection” (Advanced Science, 2025), this text covers IC50, inhibition and MIC for 21 molecules.

Converted amounts (≈) assume the structure as drawn. Like-named read-outs stand apart in the source and are kept apart here.

In assay [1] the target is T1, FabX (Helicobacter pylori, UniProt O25465).
T1 construct: gene HP_0773; recombinant from pQE2 vector in E. coli BL21(DE3) Rosetta, Ni-NTA, HiTrap-SP, Superdex75; FMN and [4Fe-4S] cofactors
T1 sequence (O25465 1-363): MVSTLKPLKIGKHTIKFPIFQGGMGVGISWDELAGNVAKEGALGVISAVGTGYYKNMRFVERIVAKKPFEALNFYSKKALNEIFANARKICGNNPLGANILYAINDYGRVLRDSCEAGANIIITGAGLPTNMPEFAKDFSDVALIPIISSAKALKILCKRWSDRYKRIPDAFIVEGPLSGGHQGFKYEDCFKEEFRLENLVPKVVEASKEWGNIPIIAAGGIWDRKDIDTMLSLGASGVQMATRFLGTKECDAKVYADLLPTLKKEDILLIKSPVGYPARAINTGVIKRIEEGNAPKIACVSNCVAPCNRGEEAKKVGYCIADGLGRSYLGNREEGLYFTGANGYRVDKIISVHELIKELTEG
The assay can be described thus: FabX-FabI coupled assay, NADH absorbance […] nm. It counts as biochemical.

Assay [2] deals with T1, FabX. Briefly: biochemical. Set-up: FabX-FabI enzyme-coupled assay, NADH consumption read-out of FabX inhibition. The following applies: for inhibition at 10 µM: read-out: Inhibition (%) 10 μM; for inhibition at 1 µM: read-out: Inhibition (%) 1 μM. The text has this:
To discover small molecule inhibitors targeting FabX, we performed protein thermal shift assay (PTSA) based high‐throughput screening against an in‐house chemical library of 11000 small molecule compounds, and established a multienzymatic cascade reaction system by incorporating the enoyl acyl carrier protein reductase FabI from H. pylori into the hit validation system, where FabI catalyzes the reduction of FabX catalytic product enoyl‐ACP in the fourth step of the elongation cycle, accompanying the elimination of NADH (Figure 2A,B). […] Subsequently, the inhibitory activities of these derivatives at 10 × 10^−6 and 1 × 10^−6 M were evaluated, and the structure–activity relationship (SAR) was analyzed (Figure S2, Supporting Information). In the first round of SAR, we briefly examined the influence of the substituents’ positions (C3 and C4), the electronic effects, and the polarity in the A moiety. We synthesized compounds 1a‐1l and evaluated their enzymatic activities (Table S1, Supporting Information). […] In particular, 3‐CN (1e) and 3‐COOH (1i) enhanced the inhibitory activity. We speculate that these two groups may act as hydrogen bond acceptors, forming hydrogen bonds with FabX and enhancing the interaction. We then retained the 3‐CN group in the A moiety and optimized the B moiety to investigate the 2,4‐disubstitution by synthesizing 8a‐8c (Figure 3). […] [picture] Figure S1. Schematic diagram of Type-II fatty acid biosynthesis pathway (FAS-II) in Helicobacter pylori. FabX (red sphere) catalyzes the dehydrogenation and isomerization of the saturated acyl group on ACP (the fifth step in the elongation cycle) for cis-double bond introduction and UFA synthesis. The black and blue curves indicate the SFA and UFA synthesis processes, respectively, while the blue dashes indicate the absence of the conventional fabA gene in the genome of H. pylori. [picture] Figure S2. Bioactivity evaluation of FBX-1 derivatives at 10 μM and 1 μM in the FabX-FabI enzyme-coupled assay. [picture] Figure S3. Overexpression of FabX in strain BHKS211. BHKS210 (NSH57/Vec) and BHKS211 (NSH57/fabX) were cultured in BHI broth supplemented with 10% FCS to an OD600 of 0.3 and then harvested. RNA isolation, reverse transcription, and real-time PCR were performed as described in the EXPERIMENTAL METHODS section. The relative levels of fabX expression in BHKS211 compared to the control strain BHKS210 are represented. The data are the averages ± standard deviations from three independent experiments.

The subject of assay [3] is T2, Helicobacter pylori BHKS 568.
T2 construct: BHKS568 (NSH57 IR0203::fabX ΔfabX) native fabX relocated to IR0203
The assay can be described thus: microbe, parasite or virus in culture. The following applies: BHKS568, read-out: MIC. How it is done:
(§1) The sensitivity of H. pylori strains to various compounds was assessed by determining the MIC and evaluating the growth of the strains on the drug‐containing agar media. The MIC was measured using the broth microdilution assay as described previously.^[ [27] ^] Twofold serial dilutions of the test compounds were prepared using BHI broth supplemented with 10% FCS in 96‐well microtiter plates. Diluted H. pylori cultures, adjusted to a final concentration of 5 × 10^5 CFU mL^−1, were then added to each well. The cultures were incubated for 48–72 h in a microaerobic environment at 37 °C. The MIC was determined by visual inspection. H. pylori strains used in this study were cultured on brain heart infusion (BHI) broth (Oxoid, UK) or Columbia blood agar medium (Oxoid, UK) supplemented with 10% fetal calf serum (FCS). The cultures were incubated at 37 °C for 48–72 h under microaerobic environments in a double‐gas CO2 incubator (Binder, Germany). The wild‐type strains G27 and NSH57 used in this study were kindly provided by Prof. Nina R. Salama from the Fred Hutchinson Cancer Research Center (USA). Three clinical H. pylori strains (BYES129, BY924, and JIGC0009) were isolated from biopsy samples from three patients with gastritis or gastric cancer using standard protocols. Strains BHKS551 (NSH57 IR0203::fabA ΔfabX) and BHKS568 (NSH57 IR0203::fabX ΔfabX) were described previously.^[ [19] ^] The following 15 reference strains of different species were also used: Escherichia coli ATCC 25922, Klebsiella pneumoniae ATCC 35657, Pseudomonas aeruginosa PAO1, Salmonella enterica serovar Typhimurium ATCC 14028, Shigella dysenteriae Sd197, Acinetobacter baumannii ATCC 19606, Proteus mirabilis ATCC 29906, Enterobacter cloacae ATCC 13047, Stenotrophomonas maltophilia ATCC 51331, Bacillus subtilis 168, Enterococcus faecium ATCC 19434, Staphylococcus aureus ATCC 25923, Staphylococcus haemolyticus ATCC 29970, Listeria monocytogenes EGDe, and Morganella morganii ATCC 25830. These non‐Helicobacter bacterial strains were cultured as described previously.^[ [25] ^] We evaluated the antibacterial activities of selected compounds (IC 50 < 1 × 10^−6 M) against several H. pylori strains (Table S3∖, Supporting Information), particularly against strains BHKS551 and BHKS211 (the FabX overexpressed strain, hereinafter referred to as FabX^OE) to validate the on‐target effect in vivo. Note that FabX is overproduced 3.32‐fold in strain BHKS211 compared to the control strain BHKS210 carrying the empty vector (Figure S3, Supporting Information). […] This could be due to the fact that the carboxyl group of 8j readily deprotonates and acquires negative charge at physiological pH, which reduces its lipophilicity and prevents it from permeating the bacterial cell membrane. To address this issue, we employed a prodrug strategy and synthesized esters from 8j by attaching it to lipophilic alcohols (8p‐8u) or a lipophilic cation 6‐hydroxyhexyltriphenylphosphonium bromide (8v) (Figure 3). […] Compounds 8p‐8s were synthesized as shown in Scheme 1, while compounds 8t‐8v were synthesized as described in Scheme 3 . 8q was hydrolyzed with NaOH to yield 8j, which was subsequently reacted with various alcohols by Steglich esterification to produce compounds 8t‐8v.

For assay [4], the system named is T3, Helicobacter pylori Hp129.
T3 construct: Hp129
Briefly: microbe, parasite or virus in culture. The following applies: HP129, read-out: MIC. As for the experimental part: as §1

Assay [5] relates to T4, Helicobacter pylori G27.
T4 construct: G27
Briefly: microbe, parasite or virus in culture. Particulars: G27, read-out: MIC. As for the experimental part: as §1

The subject of assay [6] is T5, Helicobacter pylori BHKS 210.
T5 construct: BHKS210 (NSH57/empty vector pTM117) wild-type NSH57 with empty vector
Briefly: microbe, parasite or virus in culture. The following applies: BHKS210, read-out: MIC. As for the experimental part:
as §1

Assay [7] concerns the target T1, FabX. The assay can be described thus: biochemical. The following applies: read-out: % inhibition. Set-up: FabX inhibition in multienzymatic cascade coupled to FabI, NADH consumption read-out. The source says:
To discover small molecule inhibitors targeting FabX, we performed protein thermal shift assay (PTSA) based high‐throughput screening against an in‐house chemical library of 11000 small molecule compounds, and established a multienzymatic cascade reaction system by incorporating the enoyl acyl carrier protein reductase FabI from H. pylori into the hit validation system, where FabI catalyzes the reduction of FabX catalytic product enoyl‐ACP in the fourth step of the elongation cycle, accompanying the elimination of NADH (Figure 2A,B). […] The subcloning, expression, and purification of FabX, FabI, and ACP from H. pylori, FabK from S. pneumoniae, and FabA from E. coli were described previously.^[ [19] ^] Briefly, fabX, fabI, fabK, and fabA genes were subcloned to pQE2 vector, while the Acp gene was subcloned to pET32a vector, respectively. The proteins were expressed in BL21(DE3) Rosetta cells, purified by using Ni‐NTA affinity column, HiTrap‐SP column, GE HiLoad 16/600 Superdex75 prep grade gel‐filtration column. The peaks from the gel‐filtration column were further pooled, concentrated, and the final concentration of the proteins was quantified by the Bradford reagent purchased from Bio‐Rad.

With `O=C1COc2ccc(NS(=O)(=O)c3cccnc3Nc3ccc(Cl)cc3Cl)cc2N1` [8m], in assay [1], the concentration for half-maximal inhibition (IC50) came out at 0.249 ± 0.038 µM.
The same measure, in the same setting: to `O=S(=O)(Nc1ccc(F)cc1)c1cccnc1Nc1ccc(Cl)cc1` [FBX-1] belongs 9.7 ± 1 µM.
Consider `O=S(=O)(Nc1cccc(I)c1)c1cccnc1Nc1ccc(Cl)cc1` [1c, 2-((4-chlorophenyl)amino)-N-(3-iodophenyl)pyridine-3-sulfonamide], for which the inhibition at 10 µM in assay [2] is 23%.
On the same count and under the same terms, the same measure for `O=S(=O)(Nc1ccc(F)nc1)c1cccnc1Nc1ccc(Cl)cc1` [1k]: 12%; for `N#Cc1ccc(NS(=O)(=O)c2cccnc2Nc2ccc(Cl)cc2)cc1` [1d, 2-((4-chlorophenyl)amino)-N-(4-cyanophenyl)pyridine-3-sulfonamide]: 12%.
On to `O=c1[nH]c(-c2cccc(NS(=O)(=O)c3cccnc3Nc3ccc(Cl)cc3Cl)c2)no1` [8k], for which the IC50 in assay [1] came to 0.665 ± 0.085 µM.
On to `N#Cc1cccc(NS(=O)(=O)c2ncccc2Nc2ccc(Cl)cc2Cl)c1` [11c, N-(3-cyanophenyl)-3-((2,4-dichlorophenyl)amino)pyridine-2-sulfonamide], for which, in assay [2], the inhibition at 1 µM amounted to 17% and the inhibition at 10 µM turned out to be 60%.
With `CCOC(=O)c1cccc(NS(=O)(=O)c2cccnc2Nc2ccc(Cl)cc2Cl)c1` [8q], the MIC is 16 µg/mL (≈ 34.3 µM) in assay [3], 16 µg/mL (≈ 34.3 µM) in assay [4], 16 µg/mL (≈ 34.3 µM) in assay [5] and 32 µg/mL (≈ 68.6 µM) in assay [6]. In addition, the inhibition at 1 µM in assay [7] was found to be 60%. Moreover, the inhibition at 10 µM in assay [7] was 100%. Further, the IC50 in assay [1] amounted to 0.552 ± 0.118 µM.
Regarding `COc1cccc(NS(=O)(=O)c2cccnc2Nc2ccc(Cl)cc2)c1` [1g], the inhibition at 10 µM in assay [2] turned out to be 21%.
For `O=S(=O)(NCc1ccccc1)c1cccnc1Nc1ccc(Cl)cc1` [1l], in assay [2], the inhibition at 1 µM turned out to be 12% and the inhibition at 10 µM is 25%.
Take `N#Cc1cccc(NS(=O)(=O)c2ccccc2Nc2ccc(Cl)cc2Cl)c1` [11d, N-(3-cyanophenyl)-2-((2,4-dichlorophenyl)amino)benzenesulfonamide]: in assay [2], the IC50 was 2.38 ± 0.225 µM, the inhibition at 1 µM came out at 60% and the inhibition at 10 µM came to 94%.
With `CCOC(=O)c1cccc(NS(=O)(=O)c2cccnc2Nc2ccc(Cl)cc2)c1` [1h], the inhibition at 10 µM in assay [2] amounted to 35%.
The same measure, in the same setting: the same measure for `C#Cc1cccc(NS(=O)(=O)c2cccnc2Nc2ccc(Cl)cc2)c1` [1j]: 63%.
As to `COC(=O)c1cccc(NS(=O)(=O)c2cccnc2Nc2ccc(Cl)cc2Cl)c1` [8p, FBX-1991], the MIC in assay [3], in assay [4], in assay [5] and in assay [6] was 16 µg/mL (≈ 35.4 µM) each time. Moreover, the inhibition at 1 µM in assay [7] worked out at 83%. Besides, the inhibition at 10 µM in assay [7] was 98%. The molecule also gave an IC50 in assay [1] of 0.158 ± 0.03 µM.
In the case of `N#Cc1cccc(NS(=O)(=O)c2cccnc2Nc2ccc(Cl)cc2)c1` [1e], in assay [2], the inhibition at 1 µM worked out at 31% and the inhibition at 10 µM was 88%.
Regarding `O=C(O)c1cccc(NS(=O)(=O)c2cccnc2Nc2ccc(Cl)cc2)c1` [1i], in assay [2], the inhibition at 1 µM was found to be 19% and the inhibition at 10 µM worked out at 65%.
`O=S(=O)(Nc1cccc(-c2nnn[nH]2)c1)c1cccnc1Nc1ccc(Cl)cc1Cl` [8l]: the midpoint of inhibition in assay [1], the IC50, lay at 0.904 ± 0.177 µM.
For `N#Cc1cccc(NS(=O)(=O)c2ccncc2Nc2ccc(Cl)cc2Cl)c1` [11a, N-(3-cyanophenyl)-3-((2,4-dichlorophenyl)amino)pyridine-4-sulfonamide], in assay [2], the IC50 worked out at 0.48 ± 0.061 µM, the inhibition at 1 µM is 100% and the inhibition at 10 µM came to 100%.
`O=S(=O)(Nc1cccc(O)c1)c1cccnc1Nc1ccc(Cl)cc1Cl` [8n] yielded an IC50 in assay [1] of 0.945 ± 0.111 µM.
As for `N#Cc1cccc(NS(=O)(=O)c2cccnc2Nc2ccc(Cl)cc2Cl)c1` [8c], in assay [2], the inhibition at 1 µM turned out to be 77% and the inhibition at 10 µM was found to be 100%. In addition, 0.625 ± 0.082 µM corresponded to half-maximal inhibition in assay [1] (IC50).
In the case of `COc1ccc(NS(=O)(=O)c2cccnc2Nc2ccc(Cl)cc2)cc1` [1f], the inhibition at 10 µM in assay [2] came out at 23%.

What is called IC50 is the concentration needed to halve the response being measured. For orientation: inhibition means how much of the control response was suppressed.
